Series [1] deals with sensitive cells (for example, PC12). The conditions noted are these: cited from earlier work.
Series [2] relates to eggs of Trichuris suis. Description: Dyeing of Trichuris suis eggs (TSO) with ageladine A, fluorescence microscopy with UV excitation. How it is done:
Embryonated eggs of Trichuris suis (TSO) according to specification of Ovamed GmbH. The nematode eggs are stored in the refrigerator at from 4 to 8° C. in a phosphate buffer at pH 5 with addition of potassium sorbate. For the tests, the TSO were washed several times in 1×DPBS (re-buffering) and adjusted to a concentration of 1000 TSO/ml.
Ageladine stock solution: 10 mM in MeOH (90%); 1 μl of ageladine was combined with 1000 μl of TSO suspension (see 2.5) in 15 ml tubes. The contents were mixed by gentle shaking and incubated for 10 minutes at ambient temperature in the dark.
The ISO were washed three times in DPBS after being dyed with Ageladine A (see 2.6.2). 10 μl of the samples were placed on object carriers with recesses and covered with glass covers. The object carriers were observed under the microscope Leica SP5 MP with and without UV excitation.

For series [3] the following is noted: cited from earlier work.
The conditions of series [4]: cited from earlier work. This is another data set of the same source.

Consider `Nc1nc2ccnc(-c3cc(Br)c(Br)[nH]3)c2[nH]1` [ageladine A], for which the toxicity entry in series [1] (sensitive cells (for example, PC12), long incubation) is recorded as “not toxic”. Also, the “cell toxicity after a long incubation time” value in series [1] (whipworm eggs, long incubation time) is listed as “not cell-toxic”. The “absorption of the dye by eggs of the whipworm” value in series [2] (eggs normally absorb dyes very poorly) was “very rapid”. In addition, in series [2] (excitation 370 nm, detection 410-480 nm, 10 minutes incubation at ambient temperature), the “proportion of TSO exhibiting fluorescence after incubation with ageladine A” value is recorded as “a small percentage”. The “correlation between eggs marked as defective by morphological criteria and fluorescing eggs” value in series [2] (optical blind test, fourteen TSO, UV excitation) is on record as “high level of correlation”. Moreover, the “fluorescence in degenerated eggs of Trichuris suis” value in series [2] (ultraviolet excitation, multi-photon microscopy) was “fluoresces”. In addition, the “pH of greatest fluorescence” value in series [3] (fluorescence decreases as the pH value increases) is on record as roughly 4 pH. For the same compound, the “stability of the dyeing” value in series [3] (intensive dyes in cells, tissues, organisms) was “stable over hours and days”. The tendency to fade entry in series [3] (relatively long incubation times) was “scarcely has any tendency to fade”. The “membrane permeability in the charged (protonated, acidic medium) state” value in series [4] (charged state) is listed as “membrane-impermeable”. In addition, the membrane permeability entry in series [4] is on record as “high level of membrane-permeability”. For the same compound, the “membrane permeability in the uncharged (alkaline medium) state” value in series [4] (uncharged state) is reported as “very rapidly crosses many cell membranes”.
